Experimental findings from DBAASP are described below.

Some test systems named below: Bacillus subtilis; Bacillus subtilis 168; Escherichia coli B; Pseudomonas aeruginosa; Staphylococcus aureus; Escherichia coli.
Common to all, as to experiment: ≥ marks a high value that may be exact or a test limit, other limits are often not marked, values filed in µg/mL are converted to µM
The subject of assay [1] is Candida albicans ATCC 2002.
In assay [2] the test system is Escherichia coli ATCC 25922.
In assay [3] the test system is Pseudomonas aeruginosa CMCCB 10104.
Assay [4] has as its system Staphylococcus aureus ATCC 25923.
In assay [5] the test system is Candida parapsilosis ATCC 22019.
Assay [6] relates to Staphylococcus epidermidis ATCC 12228.

Values after ≈ are worked out from the molar mass of the structure shown.

For the compound `CC[C@H](C)[C@H](NC(=O)[C@H](C)NC(=O)[C@H](CC(C)C)NC(=O)[C@H](CCC(=O)O)NC(=O)[C@H](CCCCN)NC(=O)[C@H](Cc1ccccc1)NC(=O)[C@@H](NC(=O)[C@H](CO)NC(=O)[C@H](CC(C)C)NC(=O)[C@H](Cc1ccccc1)NC(=O)[C@@H](N)CO)[C@@H](C)O)C(=O)N[C@@H](CC(N)=O)C(=O)N[C@@H](C)C(=O)N[C@@H](C)C(=O)N[C@@H](CCCCN)C(=O)N[C@@H](CC(N)=O)C(=O)N[C@@H](C)C(=O)NCC(=O)N[C@@H](CCC(N)=O)C(=O)N[C@@H](CO)C(=O)N[C@@H](CC(C)C)C(=O)N[C@@H](CC(C)C)C(=O)N[C@@H](Cc1cnc[nH]1)C(=O)N[C@H](C(=O)N[C@@H](CC(C)C)C(=O)N[C@@H](CO)C(=O)N[C@H]1CSSC[C@@H](C(=O)O)NC(=O)[C@H]([C@@H](C)O)NC(=O)[C@H](CCCCN)NC(=O)[C@H](CC(=O)O)NC(=O)[C@H](CC(C)C)NC(=O)[C@H](CCCCN)NC1=O)[C@@H](C)O` [SFLSTFKELAINAAKNAGQSLLHTLSCKLDKTC], the MIC turned out to be 4.45 µM (≈ 15.8 µg/mL) in assay [1], 4.45 µM (≈ 15.8 µg/mL) in assay [2], 2.22 µM (≈ 7.9 µg/mL) in assay [3] and 2.22 µM (≈ 7.9 µg/mL) in assay [4].

Consider `CC[C@H](C)[C@H](NC(=O)[C@H](C)NC(=O)[C@H](CCCN=C(N)N)NC(=O)[C@H](Cc1ccc(O)cc1)NC(=O)[C@H](CC(C)C)NC(=O)[C@H](CC(N)=O)NC(=O)[C@H](Cc1ccc(O)cc1)NC(=O)CNC(=O)[C@H](C)NC(=O)[C@@H](NC(=O)[C@@H](NC(=O)[C@@H](NC(=O)[C@H](CCCN=C(N)N)NC(=O)[C@@H](NC(=O)[C@@H](NC(=O)[C@@H](NC(=O)[C@@H]1CCCN1C(=O)[C@H](Cc1c[nH]c2ccccc12)NC(=O)[C@H](Cc1ccccc1)NC(=O)[C@@H](N)CCCN=C(N)N)C(C)C)C(C)C)[C@@H](C)CC)[C@@H](C)O)C(C)C)C(C)C)C(=O)N[C@@H](CCCCN)C(=O)N[C@@H](CCCCN)C(=O)N[C@@H](CCCCN)C(=O)O` [RFWPVVIRTVVAGYNLYRAIKKK], for which the minimal inhibitory concentration (MIC) against Bacillus subtilis came out at 2.53 µM (≈ 7.03 µg/mL); in assay [1] it was 0.211 µM (≈ 0.586 µg/mL); in assay [2], 7.11 µM (≈ 19.8 µg/mL); in [4] it was 0.422 µM (≈ 1.17 µg/mL).

In the case of `CC[C@H](C)[C@H](NC(=O)[C@H](CC(C)C)NC(=O)[C@H](CC(C)C)NC(=O)[C@H](CC(=O)O)NC(=O)[C@H](CCCCN)NC(=O)[C@@H](NC(=O)[C@@H](NC(=O)CNC(=O)[C@H](CCSC)NC(=O)[C@@H](NC(=O)[C@@H](N)CO)C(C)C)[C@@H](C)O)C(C)C)C(=O)NCC(=O)N[C@@H](C)C(=O)NCC(=O)N[C@@H](CCCCN)C(=O)N[C@@H](CO)C(=O)N[C@@H](C)C(=O)N[C@@H](C)C(=O)N[C@@H](CCC(N)=O)C(=O)N[C@@H](CO)C(=O)N[C@H](C(=O)N[C@@H](CC(C)C)C(=O)N[C@@H](CCCCN)C(=O)N[C@@H](CO)C(=O)N[C@@H](CC(C)C)C(=O)N[C@@H](CO)C(=O)N[C@H]1CSSC[C@@H](C(=O)O)NC(=O)[C@H](CC(=O)O)NC(=O)[C@H](CC(N)=O)NC(=O)[C@H](CO)NC(=O)[C@H]([C@@H](C)CC)NC(=O)[C@H](CCCCN)NC1=O)C(C)C` [SVMGTVKDLLIGAGKSAAQSVLKSLSCKISNDC], the MIC in assay [1] was 1.41 µM (≈ 4.7 µg/mL); in [2] it was 1.41 µM (≈ 4.7 µg/mL); in assay [3], 1.41 µM (≈ 4.7 µg/mL); in assay [4] it was 2.83 µM (≈ 9.39 µg/mL).

For `CC[C@H](C)[C@@H]1NC(=O)[C@H](CCCCN)NC(=O)[C@@H](NC(=O)[C@H](CCCCN)NC(=O)[C@H](CC(C)C)NC(=O)[C@H](CC(N)=O)NC(=O)[C@H](CC(=O)O)NC(=O)[C@H](CC(C)C)NC(=O)[C@H](CC(C)C)NC(=O)[C@@H](NC(=O)[C@@H](NC(=O)[C@H](C)NC(=O)[C@H](CCSC)NC(=O)[C@H](CC(N)=O)NC(=O)[C@H](CCCCN)NC(=O)[C@H](C)NC(=O)[C@@H](NC(=O)[C@H](CC(N)=O)NC(=O)[C@H](CCCCN)NC(=O)[C@H](C)NC(=O)[C@@H](NC(=O)[C@H](CC(=O)O)NC(=O)[C@H](CCSC)NC(=O)[C@H](Cc2ccccc2)NC(=O)CN)[C@@H](C)O)C(C)C)C(C)C)[C@@H](C)O)CSSC[C@@H](C(=O)O)NC(=O)[C@H](C)NC(=O)[C@H](CCCCN)NC(=O)[C@H]([C@@H](C)O)NC1=O` [GFMDTAKNVAKNMAVTLLDNLKCKITKAC], the MIC in [1] came out at 1.21 µM (≈ 3.8 µg/mL); in [2], 2.39 µM (≈ 7.5 µg/mL); in [3], 2.39 µM (≈ 7.5 µg/mL); in [4], 1.21 µM (≈ 3.8 µg/mL).

As for `CC(C)C[C@H](NC(=O)[C@H](CCC(=O)O)NC(=O)[C@@H]1CCCN1C(=O)[C@H](CCC(=O)O)NC(=O)[C@@H](NC(=O)[C@H](C)NC(=O)[C@H](C)NC(=O)[C@@H](N)CC(=O)O)C(C)C)C(=O)N[C@@H](Cc1ccc(O)cc1)C(=O)N[C@@H](Cc1cnc[nH]1)C(=O)N[C@@H](Cc1c[nH]c2ccccc12)C(=O)NCC(=O)N[C@@H](CCCCN)C(=O)N[C@H](C(=O)N[C@@H](Cc1c[nH]c2ccccc12)C(=O)N[C@@H](CC(C)C)C(=O)N1CCC[C@H]1C(=O)N[C@@H](CC(N)=O)C(=O)O)C(C)C` [DAAVEPELYHWGKVWLPN], the MIC is no less than 94.1 µM in assay [1], greater than 94.1 µM in [2], no less than 94.1 µM in assay [3] and greater than 94.1 µM in assay [4].

`CC[C@H](C)[C@H](NC(=O)[C@H](CCCCN)NC(=O)[C@H](CCCCN)NC(=O)[C@H](Cc1c[nH]c2ccccc12)NC(=O)[C@H](CC(N)=O)NC(=O)[C@@H](N)C(C)C)C(=O)N[C@@H](CC(C)C)C(=O)N[C@@H](C)C(=O)N[C@@H](CCCCN)C(=O)N[C@H](C(=O)N[C@H](C(=O)N[C@@H](CCCCN)C(=O)N[C@H](C(=O)N[C@@H](C)C(=O)N[C@@H](CCCCN)C(N)=O)C(C)C)[C@@H](C)CC)[C@@H](C)CC` [VNWKKILAKIIKVAK]: the MIC was 0.7 µM (≈ 1.23 µg/mL) in the assay on Bacillus subtilis 168, 0.7 µM (≈ 1.23 µg/mL) with Escherichia coli B, 22.5 µM (≈ 39.4 µg/mL) in the assay on Pseudomonas aeruginosa and 4.3 µM (≈ 7.53 µg/mL) with Staphylococcus aureus.

For `CC[C@H](C)[C@H](NC(=O)[C@H](CCCCN)NC(=O)[C@H](CCCCN)NC(=O)[C@H](Cc1c[nH]c2ccccc12)NC(=O)[C@@H](NC(=O)[C@@H](N)CC(N)=O)C(C)C)C(=O)N[C@@H](CC(C)C)C(=O)NCC(=O)N[C@@H](CCCCN)C(=O)N[C@H](C(=O)N[C@H](C(=O)N[C@@H](CCCCN)C(=O)N[C@H](C(=O)N[C@@H](C)C(=O)N[C@@H](CCCCN)C(N)=O)C(C)C)[C@@H](C)CC)[C@@H](C)CC` [NVWKKILGKIIKVAK], the MIC was determined as 0.7 µM (≈ 1.22 µg/mL) against Bacillus subtilis 168, 1.1 µM (≈ 1.91 µg/mL) in the assay on Escherichia coli B, 23.3 µM (≈ 40.5 µg/mL) in the assay with Pseudomonas aeruginosa and 19.7 µM (≈ 34.2 µg/mL) in the assay with Staphylococcus aureus.

For the compound `CC[C@H](C)[C@H](NC(=O)[C@H](CCCCN)NC(=O)[C@H](CCCCN)NC(=O)[C@H](Cc1c[nH]c2ccccc12)NC(=O)[C@H](CC(N)=O)NC(=O)[C@@H](N)C(C)C)C(=O)N[C@@H](CC(C)C)C(=O)N[C@@H](C)C(=O)N[C@@H](CCCCN)C(=O)N[C@H](C(=O)N[C@H](C(=O)N[C@@H](CCCCN)C(=O)N[C@H](C(=O)N[C@H](C(=O)N[C@@H](CCCCN)C(N)=O)C(C)C)C(C)C)[C@@H](C)CC)[C@@H](C)CC` [VNWKKILAKIIKVVK], the MIC against Bacillus subtilis 168 came to 0.6 µM (≈ 1.07 µg/mL); against Escherichia coli B, 1.4 µM (≈ 2.49 µg/mL); in the assay with Pseudomonas aeruginosa, 27.1 µM (≈ 48.2 µg/mL); against Staphylococcus aureus, 2.2 µM (≈ 3.91 µg/mL).

For `CC[C@H](C)[C@H](NC(=O)[C@H](CO)NC(=O)[C@H](C)NC(=O)[C@@H](NC(=O)[C@H](CCCCN)NC(=O)[C@H](CCCCN)NC(=O)[C@@H](N)Cc1c[nH]c2ccccc12)[C@@H](C)CC)C(=O)NCC(=O)N[C@@H](CCCCN)C(=O)N[C@@H](CCC(=O)O)C(=O)N[C@H](C(=O)N[C@@H](CC(C)C)C(=O)N[C@@H](CCCCN)C(=O)N[C@@H](C)C(=O)N[C@@H](CC(C)C)C(N)=O)C(C)C` [WKKIASIGKEVLKAL], the MIC against Bacillus subtilis is no less than 125 µM; in the assay on Escherichia coli, 62 µM (≈ 104 µg/mL).

On to `CC[C@H](C)[C@H](NC(=O)[C@H](CO)NC(=O)[C@H](CC(C)C)NC(=O)[C@H](Cc1ccccc1)NC(=O)CN)C(=O)N[C@@H](CC(C)C)C(=O)N[C@@H](CCCCN)C(=O)N[C@@H](CCCCN)C(=O)N[C@H](C(=O)N[C@@H](CC(C)C)C(=O)NCC(=O)N[C@@H](CCCCN)C(=O)N[C@H](C(=O)N[C@@H](CCSC)C(=O)N[C@@H](C)C(=O)N[C@@H](Cc1cnc[nH]1)C(=O)N[C@@H](CCSC)C(=O)N[C@@H](CCCCN)C(N)=O)C(C)C)C(C)C` [GFLSILKKVLGKVMAHMK], for which the MIC with Bacillus subtilis 168 came out at 1.3 µM (≈ 2.6 µg/mL); against Escherichia coli B, 1.8 µM (≈ 3.6 µg/mL); against Pseudomonas aeruginosa it was 14.4 µM (≈ 28.8 µg/mL); with Staphylococcus aureus it was 4.3 µM (≈ 8.6 µg/mL).

For `CC[C@H](C)[C@H](NC(=O)[C@H](C)NC(=O)CNC(=O)[C@H](CC(C)C)NC(=O)[C@@H](N)Cc1ccccc1)C(=O)N[C@@H](C)C(=O)N[C@@H](CCC(N)=O)C(=O)N[C@@H](C)C(=O)N[C@@H](CC(C)C)C(=O)N[C@H](C(=O)N[C@@H](CO)C(=O)N[C@@H](CC(C)C)C(=O)N[C@@H](CC(C)C)C(=O)NCC(=O)N[C@@H](CCCCN)C(=O)N[C@@H](CC(C)C)C(N)=O)[C@@H](C)O` [FLGAIAQALTSLLGKL], the minimal inhibitory concentration (MIC) was no less than 64 µM in assay [5], greater than 128 µM in assay [2] and 8 µM (≈ 12.9 µg/mL) in assay [6].

Regarding `CC[C@H](C)[C@H](NC(=O)[C@H](Cc1cnc[nH]1)NC(=O)[C@H](CCCCN)NC(=O)[C@H](CC(C)C)NC(=O)[C@H](CC(C)C)NC(=O)[C@H](CO)NC(=O)[C@H](CCSC)NC(=O)[C@H](Cc1c[nH]c2ccccc12)NC(=O)[C@H](CCCCN)NC(=O)[C@@H](N)CCCCN)C(=O)N[C@@H](CC(C)C)C(=O)N[C@@H](CCCCN)C(N)=O` [KKWMSLLKHILK], the MIC against Bacillus subtilis 168 turned out to be 1.1 µM (≈ 1.68 µg/mL); against Escherichia coli B, 3 µM (≈ 4.57 µg/mL); against Pseudomonas aeruginosa, 25 µM (≈ 38.1 µg/mL); in the assay on Staphylococcus aureus, 28.3 µM (≈ 43.1 µg/mL).

By MIC is commonly meant the least concentration at which growth counts as inhibited. A high value points to a need for much substance.
